{"source": "patent US10370336B2", "about": "“Phenyl-cyanoquinolinone PDE9 inhibitors” (Merck Sharp & Dohme Corp., priority 2015, dated 2019)", "target": "human PDE9 enzyme (PDE9A2) (Homo sapiens (Human), UniProt O76083)", "sequence (O76083 other isoform, or with tags, fused parts or gaps)": "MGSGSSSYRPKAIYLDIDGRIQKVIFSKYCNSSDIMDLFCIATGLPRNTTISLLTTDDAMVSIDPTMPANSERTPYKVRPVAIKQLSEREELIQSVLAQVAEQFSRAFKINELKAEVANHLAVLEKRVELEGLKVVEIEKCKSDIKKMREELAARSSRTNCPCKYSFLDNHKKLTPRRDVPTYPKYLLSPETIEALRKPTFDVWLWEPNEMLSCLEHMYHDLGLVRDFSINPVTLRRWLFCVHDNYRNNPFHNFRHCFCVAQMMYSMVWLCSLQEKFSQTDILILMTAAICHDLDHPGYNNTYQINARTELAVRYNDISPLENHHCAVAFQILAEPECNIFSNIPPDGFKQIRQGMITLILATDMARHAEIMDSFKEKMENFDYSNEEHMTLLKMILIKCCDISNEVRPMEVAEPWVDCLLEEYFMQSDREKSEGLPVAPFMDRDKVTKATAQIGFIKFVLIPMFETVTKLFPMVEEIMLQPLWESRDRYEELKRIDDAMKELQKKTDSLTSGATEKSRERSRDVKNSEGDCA", "settings": "read-out: PDE9 IMAP Ki; IMAP FP assay, FAM-cGMP substrate 50 nM, apparent inhibition constant", "from_the_text": "Dose-inhibition profiles for each compound were characterized by fitting the mP data to a four-parameter equation given below.", "data": [{"compound": "Cc1ccc(-c2c(C#N)c(=O)[nH]c3ccccc23)cc1", "note": "[Example 1-9, 2-oxo-4-(p-tolyl)-1H-quinoline-3-carbonitrile]", "values": [{"measurement": "Ki", "value": 8.9, "unit": "nM"}]}]}
